Values after ≈ are worked out from the molar mass of the structure shown. Like-named read-outs stand apart in the source and are kept apart here.
Columns and labels:
[1] = Hygroscopicity by dynamic vapor sorption (DVS); assay type: physicochemical
Description: Samples are analyzed for hygroscopicity using Intrinsic DVS ([…], UK). Approximately 10 to 30 mg of sample is used for testing. The testing chamber is controlled at a temperature of 25 ± 1°C with the specific testing parameters shown below: […]

[2] = Solubility of crystal forms in buffers, biorelevant media and water (HPLC, XRPD of residual solid); assay type: physicochemical; conditions: for pH (24 h): 5 mg/mL suspension stirred at 37°C, pH of the solution at 24 h; for Solubility at 37°C (mg/mL) 2 h: 120 min; for Solubility at 37°C (mg/mL) 2 h / Solubility at 37°C (mg/mL) 24 h / solubility at 2 h / solubility at 24 h: 37°C; for solubility at 2 h: read-out: Solubility at 37°C (mg/mL) 2 h; for solubility at 24 h: read-out: Solubility at 37°C (mg/mL) 24 h
Description: The solubility of the two crystal forms at 2 hours and 24 hours and the pH of the solution at 24 hours were tested. The solid was filtered, and the resulting solid was tested for XRPD.

[3] = Mechanical stability: dry grinding, wet grinding, tableting (XRPD); assay type: physicochemical
Description: Dry grinding: approximately 10 mg of the starting sample was ground for 3 minutes in a mortar, and then subjected to XRPD testing.
Wet grinding: approximately 10 mg of the starting sample was ground with 1 to 2 drops of solvent for 3 minutes in a mortar, and then subjected to XRPD testing.
Tableting experiment: approximately 10 mg of the starting sample was compressed at 20 MPa for 3 minutes, and then subjected to XRPD testing.

[4] = Physicochemical stability of crystal forms (HPLC purity, XRPD)
[5] = Dry grinding, 3 minutes in a mortar, no solvent
[6] = Tableting, 20 MPa for 3 minutes, solvent EA
[7] = Wet grinding, solvent EtOH, 3 minutes in a mortar
[8] = Wet grinding, solvent Water, 3 minutes in a mortar

## COc1cc2nn(C3CC4(CCN(C(=O)C5CCN(c6ccc7c(c6)C(=O)N(C6CCC(=O)NC6=O)C7=O)CC5)CC4)C3)cc2cc1NC(=O)c1cccc(C(F)(F)F)n1 (single isomer, unassigned) [crystal form I]
[1]; 80% RH, 25°C
  hygroscopic weight gain: 0.3629%
[1]; DVS, based on weight gain at 80% RH
  hygroscopicity evaluation: slightly hygroscopic
[1]; after DVS testing
  crystal form after DVS testing: no change in the crystal form
[2]; FaSSIF
  pH (24 h): 6.501
  Solubility at 37°C (mg/mL) 2 h: 0.00141 mg/mL (≈ 1.71 µM)
[2]; FeSSIF, stirring at 37°C for 24 hours, 1440 min
  solubility: approximately 0.01 mg/mL
[2]; FeSSIF
  pH (24 h): 5.085
[2]; FeSSIF, 1440 min
  Solubility at 37°C (mg/mL) 24 h: 0.01099 mg/mL (≈ 13.3 µM)
[2]; SGF
  pH (24 h): 1.266
[2]; Water
  pH (24 h): 6.749
  Solubility at 37°C (mg/mL) 2 h: 0.00089 mg/mL (≈ 1.08 µM)
[2]; Water, 1440 min
  Solubility at 37°C (mg/mL) 24 h: 0.00025 mg/mL (≈ 0.302 µM)
[2]; XRPD of residual solid after stirring in FaSSIF at 37°C for 24 hours
  Crystal form: Crystal form I
[2]; XRPD of residual solid after stirring in FeSSIF at 37°C for 24 hours
  Crystal form: Crystal form I
[2]; XRPD of residual solid after stirring in SGF at 37°C for 24 hours
  Crystal form: Crystal form I
[2]; XRPD of residual solid after stirring in Water at 37°C for 24 hours
  Crystal form: Crystal form I
[2]; XRPD of residual solid after stirring in pH 1.2 buffer at 37°C for 24 hours
  Crystal form: Crystal form I
[2]; XRPD of residual solid after stirring in pH 3.0 buffer at 37°C for 24 hours
  Crystal form: Crystal form I
[2]; XRPD of residual solid after stirring in pH 4.5 buffer at 37°C for 24 hours
  Crystal form: Crystal form I
[2]; XRPD of residual solid after stirring in pH 6.8 buffer at 37°C for 24 hours
  Crystal form: Crystal form I
[2]; XRPD of residual solid after stirring in pH 7.4 buffer at 37°C for 24 hours
  Crystal form: Crystal form I
[2]; buffer, pH 1.2, pH 1.2 buffer
  solubility at 2 h: 0.00084 mg/mL (≈ 1.02 µM)
  solubility at 24 h: 0.00081 mg/mL (≈ 0.98 µM)
[2]; buffer, pH 3, pH 3.0 buffer
  solubility at 2 h: 0.00048 mg/mL (≈ 0.581 µM)
  solubility at 24 h: 0.00077 mg/mL (≈ 0.931 µM)
[2]; buffer, pH 4.5, pH 4.5 buffer
  solubility at 2 h: 0.00019 mg/mL (≈ 0.23 µM)
  solubility at 24 h: 0.00087 mg/mL (≈ 1.05 µM)
[2]; buffer, pH 6.8, pH 6.8 buffer
  solubility at 2 h: 0.00046 mg/mL (≈ 0.556 µM)
  solubility at 24 h: 0.00084 mg/mL (≈ 1.02 µM)
[2]; buffer, pH 7.4, pH 7.4 buffer
  solubility at 2 h: 0.00101 mg/mL (≈ 1.22 µM)
  solubility at 24 h: 0.00079 mg/mL (≈ 0.955 µM)
[2]; fassif
  solubility at 24 h: 0.00148 mg/mL (≈ 1.79 µM)
[2]; fessif
  solubility at 2 h: 0.004 mg/mL (≈ 4.84 µM)
[2]; pH 1.2 buffer
  pH (24 h): 1.234
[2]; pH 3.0 buffer
  pH (24 h): 3.145
[2]; pH 4.5 buffer
  pH (24 h): 4.583
[2]; pH 6.8 buffer
  pH (24 h): 6.805
[2]; pH 7.4 buffer
  pH (24 h): 7.439
[2]; sgf
  solubility at 2 h: 0.00158 mg/mL (≈ 1.91 µM)
  solubility at 24 h: 0.00376 mg/mL (≈ 4.55 µM)
[3]; [5]
  Solid color: Yellow, essentially no change
  XRPD results: Crystal form I (low degree of crystallinity)
[3]; [6]
  Solid color: Yellow, essentially no change
  XRPD results: Crystal form I
[3]; [7]
  Solid color: Yellow, essentially no change
  XRPD results: Crystal form I
[3]; [8]
  Solid color: Yellow, essentially no change
  XRPD results: Crystal form I
[3]; after dry grinding
  degree of crystallinity of the solid: reduction in the degree of crystallinity
[3]; after dry grinding, wet grinding, and tableting
  crystal form of the solid (XRPD): no change in the crystal form
[3]; after grinding and tableting experiments, versus starting sample
  Solid color: essentially no change in the solid color
[3]; after wet grinding and tableting
  degree of crystallinity of the solid: almost no change in the degree of crystallinity
[4]; 25°C/60% RH, open, 1 week
  Purity (%): 98.96%
  XRPD: Unchanged
[4]; 40°C/75% RH, open, 1 week
  Purity (%): 98.96%
  XRPD: Unchanged
[4]; 60°C, closed, 1 week
  Purity (%): 98.80%
  XRPD: Unchanged
[4]; Initial
  Purity (%): 98.97%
[4]; Light, closed, 10 days
  Purity (%): 98.96%
  XRPD: Unchanged
[4]; Light, control, 10 days
  Purity (%): 98.97%
  XRPD: Unchanged
[4]; all stability conditions
  change in the crystal form after stability testing: no change in the crystal form
[4]; closed stability chamber at 60°C for 1 week
  degradation: 0.17%
[4]; other stability conditions (25°C/60% RH, 40°C/75% RH 1 week; light 10 days)
  degradation: no significant degradation

— patent EP4796536A1, “CRYSTAL FORMS OF COMPOUND HAVING FUSED FIVE- AND SIX-MEMBERED RINGS, PREPARATION METHOD THEREFOR, AND USE THEREOF” (Hangzhou Polymed Biopharmaceuticals, Inc., priority 2023, dated 2025)
